Test results taken from ChEMBL document CHEMBL4406912, “Discovery and Optimization of Dibenzodiazepinones as Allosteric Mutant-Selective EGFR Inhibitors” (ACS Med Chem Lett, 2019).
Calls of active or inactive are those of the source. No cut-off for these calls is given here.

How the values were obtained:
[1] = target: Epidermal growth factor receptor (Homo sapiens, UniProt P00533, L858R); assay: Inhibition of human N-terminal GST-tagged EGFR L858R mutant (696 to 1022 residues) expressed in Sf21 insect cells by HTRF assay
Sequence of Epidermal growth factor receptor (Homo sapiens, UniProt P00533, L858R) (P00533 25-1210 L858R limits assumed): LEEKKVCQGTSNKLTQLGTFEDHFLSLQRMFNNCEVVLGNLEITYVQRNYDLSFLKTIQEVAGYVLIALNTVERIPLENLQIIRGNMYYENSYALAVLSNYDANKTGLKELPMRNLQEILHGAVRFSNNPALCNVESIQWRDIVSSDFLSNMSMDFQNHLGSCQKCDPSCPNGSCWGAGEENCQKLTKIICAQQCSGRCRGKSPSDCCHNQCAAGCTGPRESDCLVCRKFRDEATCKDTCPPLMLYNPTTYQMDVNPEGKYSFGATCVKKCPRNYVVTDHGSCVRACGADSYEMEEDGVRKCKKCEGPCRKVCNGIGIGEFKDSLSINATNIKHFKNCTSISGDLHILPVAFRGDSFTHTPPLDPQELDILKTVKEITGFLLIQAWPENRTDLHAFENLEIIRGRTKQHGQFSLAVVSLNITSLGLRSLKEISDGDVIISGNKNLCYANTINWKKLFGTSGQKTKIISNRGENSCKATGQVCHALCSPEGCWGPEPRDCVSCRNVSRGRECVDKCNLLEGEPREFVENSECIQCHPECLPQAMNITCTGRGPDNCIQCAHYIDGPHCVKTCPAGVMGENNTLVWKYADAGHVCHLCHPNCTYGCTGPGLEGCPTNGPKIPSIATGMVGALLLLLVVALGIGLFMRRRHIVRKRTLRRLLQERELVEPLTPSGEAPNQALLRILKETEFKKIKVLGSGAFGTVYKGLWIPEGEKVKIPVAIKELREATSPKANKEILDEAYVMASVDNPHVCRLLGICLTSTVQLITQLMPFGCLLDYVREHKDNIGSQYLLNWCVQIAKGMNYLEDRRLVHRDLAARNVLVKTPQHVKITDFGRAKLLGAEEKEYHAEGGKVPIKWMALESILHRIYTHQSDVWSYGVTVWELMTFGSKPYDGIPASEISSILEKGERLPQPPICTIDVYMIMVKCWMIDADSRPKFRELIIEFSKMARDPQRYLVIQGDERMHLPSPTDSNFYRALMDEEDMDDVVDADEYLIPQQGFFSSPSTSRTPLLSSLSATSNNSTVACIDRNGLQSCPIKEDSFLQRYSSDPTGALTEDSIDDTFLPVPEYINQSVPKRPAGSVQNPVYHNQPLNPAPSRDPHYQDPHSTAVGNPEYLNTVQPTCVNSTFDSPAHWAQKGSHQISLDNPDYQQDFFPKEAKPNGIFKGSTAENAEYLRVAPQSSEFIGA

[2] = target: Epidermal growth factor receptor (Homo sapiens, UniProt P00533); assay: Inhibition of human N-terminal GST-tagged EGFR (696 to 1022 residues) expressed in Sf21 insect cells by HTRF assay
Sequence of Epidermal growth factor receptor (Homo sapiens, UniProt P00533) (P00533 whole entry, the tested form may be a part): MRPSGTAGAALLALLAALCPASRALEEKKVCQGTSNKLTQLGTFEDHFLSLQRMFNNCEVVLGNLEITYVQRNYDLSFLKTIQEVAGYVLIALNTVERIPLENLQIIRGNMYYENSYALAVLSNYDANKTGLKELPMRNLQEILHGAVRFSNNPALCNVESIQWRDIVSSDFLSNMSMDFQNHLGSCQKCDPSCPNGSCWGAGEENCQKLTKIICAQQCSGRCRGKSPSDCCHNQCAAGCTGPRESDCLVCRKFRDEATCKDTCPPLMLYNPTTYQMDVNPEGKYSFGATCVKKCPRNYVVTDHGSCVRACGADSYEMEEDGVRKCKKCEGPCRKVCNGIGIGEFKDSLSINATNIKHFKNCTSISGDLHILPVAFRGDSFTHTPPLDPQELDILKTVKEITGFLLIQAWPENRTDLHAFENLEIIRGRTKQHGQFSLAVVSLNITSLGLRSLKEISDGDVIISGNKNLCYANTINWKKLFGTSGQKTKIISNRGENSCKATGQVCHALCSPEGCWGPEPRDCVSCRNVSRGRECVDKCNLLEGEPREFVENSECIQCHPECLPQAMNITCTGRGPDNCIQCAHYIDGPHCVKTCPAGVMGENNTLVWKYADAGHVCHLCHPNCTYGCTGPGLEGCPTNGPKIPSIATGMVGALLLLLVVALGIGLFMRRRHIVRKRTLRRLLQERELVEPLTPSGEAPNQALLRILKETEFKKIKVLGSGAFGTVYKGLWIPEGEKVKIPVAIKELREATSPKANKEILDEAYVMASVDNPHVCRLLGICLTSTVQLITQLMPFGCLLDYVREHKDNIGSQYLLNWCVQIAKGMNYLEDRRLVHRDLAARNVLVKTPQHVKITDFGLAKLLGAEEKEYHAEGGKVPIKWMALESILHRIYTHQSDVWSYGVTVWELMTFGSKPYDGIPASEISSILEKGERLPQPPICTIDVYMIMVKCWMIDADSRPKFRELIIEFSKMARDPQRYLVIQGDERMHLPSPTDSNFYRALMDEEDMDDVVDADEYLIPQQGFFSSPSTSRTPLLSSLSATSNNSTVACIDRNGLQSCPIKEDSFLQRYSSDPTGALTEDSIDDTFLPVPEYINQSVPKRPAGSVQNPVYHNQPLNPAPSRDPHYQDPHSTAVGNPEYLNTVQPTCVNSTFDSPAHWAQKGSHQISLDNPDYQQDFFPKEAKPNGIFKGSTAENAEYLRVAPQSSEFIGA

[3] = target: Epidermal growth factor receptor (Homo sapiens, UniProt P00533, C797S/L858R/T790M); assay: Inhibition of human N-terminal GST-tagged EGFR triple T790M/L858R/C797S mutant (696 to 1022 residues) expressed in Sf21 insect cells by HTRF assay
[4] = target: Epidermal growth factor receptor (Homo sapiens, UniProt P00533, L858R/T790M); assay: Inhibition of human N-terminal GST-tagged EGFR double T790M/L858R mutant (696 to 1022 residues) expressed in Sf21 insect cells by HTRF assay
Sequence of Epidermal growth factor receptor (Homo sapiens, UniProt P00533, L858R/T790M) (P00533 25-1210 T790M/L858R limits assumed): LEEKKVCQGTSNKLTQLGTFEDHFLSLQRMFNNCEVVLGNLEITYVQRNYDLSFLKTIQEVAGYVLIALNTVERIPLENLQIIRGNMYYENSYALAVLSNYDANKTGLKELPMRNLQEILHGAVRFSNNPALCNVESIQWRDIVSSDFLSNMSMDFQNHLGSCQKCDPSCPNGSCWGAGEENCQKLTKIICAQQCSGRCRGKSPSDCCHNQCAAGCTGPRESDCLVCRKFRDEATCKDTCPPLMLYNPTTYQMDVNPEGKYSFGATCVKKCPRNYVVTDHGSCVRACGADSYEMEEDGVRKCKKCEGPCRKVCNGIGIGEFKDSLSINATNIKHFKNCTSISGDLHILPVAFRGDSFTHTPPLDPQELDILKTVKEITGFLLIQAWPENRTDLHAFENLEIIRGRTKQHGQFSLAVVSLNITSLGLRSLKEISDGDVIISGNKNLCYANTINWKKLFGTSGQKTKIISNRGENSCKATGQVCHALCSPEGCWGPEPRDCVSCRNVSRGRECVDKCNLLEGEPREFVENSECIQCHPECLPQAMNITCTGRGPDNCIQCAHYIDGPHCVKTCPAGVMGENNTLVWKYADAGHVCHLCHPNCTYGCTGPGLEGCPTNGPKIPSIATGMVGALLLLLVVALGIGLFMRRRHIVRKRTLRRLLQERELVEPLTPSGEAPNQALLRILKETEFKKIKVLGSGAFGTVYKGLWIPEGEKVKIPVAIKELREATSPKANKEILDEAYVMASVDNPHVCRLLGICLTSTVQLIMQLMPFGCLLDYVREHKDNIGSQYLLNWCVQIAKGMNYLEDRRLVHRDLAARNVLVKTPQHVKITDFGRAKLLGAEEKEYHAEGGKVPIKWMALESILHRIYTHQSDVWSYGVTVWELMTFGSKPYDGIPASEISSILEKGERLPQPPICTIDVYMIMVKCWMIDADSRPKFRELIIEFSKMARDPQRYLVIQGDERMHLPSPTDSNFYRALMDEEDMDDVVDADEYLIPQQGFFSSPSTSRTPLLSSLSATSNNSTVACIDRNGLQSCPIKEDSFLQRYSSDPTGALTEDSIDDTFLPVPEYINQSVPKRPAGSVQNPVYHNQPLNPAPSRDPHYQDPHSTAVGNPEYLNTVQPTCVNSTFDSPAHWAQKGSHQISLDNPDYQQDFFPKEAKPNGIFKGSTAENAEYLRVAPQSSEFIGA

[5] = target: T1, STE20-like serine/threonine-protein kinase (Homo sapiens, UniProt Q9H2G2); assay: Binding affinity to wild-type human partial length SLK (S14 to A307 residues) expressed in bacterial expression system assessed as residual binding level at 10 uM by Kinomescan method
T1 sequence (Q9H2G2 whole entry, the tested form may be a part): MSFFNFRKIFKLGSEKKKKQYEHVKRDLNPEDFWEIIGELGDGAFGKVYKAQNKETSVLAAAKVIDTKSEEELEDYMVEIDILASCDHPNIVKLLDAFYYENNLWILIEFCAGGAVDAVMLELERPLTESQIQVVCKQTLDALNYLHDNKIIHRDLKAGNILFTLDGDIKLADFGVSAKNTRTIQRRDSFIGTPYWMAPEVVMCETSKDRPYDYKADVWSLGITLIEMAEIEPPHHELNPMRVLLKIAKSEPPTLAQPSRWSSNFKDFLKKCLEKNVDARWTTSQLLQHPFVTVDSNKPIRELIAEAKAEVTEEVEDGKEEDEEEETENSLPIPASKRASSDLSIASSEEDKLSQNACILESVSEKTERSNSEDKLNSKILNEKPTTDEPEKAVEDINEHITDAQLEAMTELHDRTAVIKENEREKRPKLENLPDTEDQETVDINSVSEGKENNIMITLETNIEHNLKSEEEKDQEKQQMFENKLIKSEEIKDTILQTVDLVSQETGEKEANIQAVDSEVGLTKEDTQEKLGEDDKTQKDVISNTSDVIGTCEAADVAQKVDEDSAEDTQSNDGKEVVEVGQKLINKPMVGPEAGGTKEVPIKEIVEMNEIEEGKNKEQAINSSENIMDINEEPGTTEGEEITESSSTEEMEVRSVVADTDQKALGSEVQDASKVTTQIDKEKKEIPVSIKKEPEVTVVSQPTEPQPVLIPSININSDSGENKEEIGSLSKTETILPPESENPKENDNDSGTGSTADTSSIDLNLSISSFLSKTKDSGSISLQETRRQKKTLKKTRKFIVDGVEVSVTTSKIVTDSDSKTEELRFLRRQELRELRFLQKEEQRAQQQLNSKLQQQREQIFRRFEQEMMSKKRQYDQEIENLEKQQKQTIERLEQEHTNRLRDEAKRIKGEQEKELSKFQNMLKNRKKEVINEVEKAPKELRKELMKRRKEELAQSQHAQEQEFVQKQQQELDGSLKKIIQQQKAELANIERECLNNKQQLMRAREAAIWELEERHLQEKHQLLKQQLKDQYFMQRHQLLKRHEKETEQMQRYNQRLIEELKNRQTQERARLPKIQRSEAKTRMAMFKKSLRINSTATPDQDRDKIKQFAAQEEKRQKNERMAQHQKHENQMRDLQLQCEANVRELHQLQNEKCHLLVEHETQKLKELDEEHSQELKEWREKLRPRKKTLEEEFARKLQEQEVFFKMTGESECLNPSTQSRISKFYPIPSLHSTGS

[6] = system: Epidermal growth factor receptor (Homo sapiens), P00533 [L858R,T790M]; assay: Allosteric inhibition of human N-terminal GST-tagged EGFR double T790M/L858R mutant (696 to 1022 residues) expressed in Sf21 insect cells assessed as change in inhibition rate in presence of 1 to 1000 uM ATP by HTRF assay
[7] = target: Mast/stem cell growth factor receptor Kit (Homo sapiens, UniProt P10721, V559D/V654A); assay: Inhibition of recombinant human His-tagged KIT V559D/V654A double mutant expressed in baculovirus expression system at 10 uM by kinomescan assay
[8] = target: T1, STE20-like serine/threonine-protein kinase; assay: Inhibition of tracer 236 binding to recombinant full length human GST-tagged SLK expressed in baculovirus expression system measured after 60 mins by Lanthascreen assay relative to control

Structure (SMILES) | IC50 [1] | IC50 [2] | IC50 [3] | IC50 [4] | Kd [5] | inhibition [6] | Kd [7] | IC50 [8]
O=C1c2cc(-c3ccc(N4CCNCC4)cc3)ccc2Nc2ccc(F)cc2N1Cc1ccccc1 | 150 nM | > 1000 nM | 19 nM | 31 nM |  |  |  | 
CN1CCN(c2ccc(Oc3ccc4c(c3)C(=O)N(Cc3ccccc3)c3cc(F)ccc3N4)cc2)CC1 | 154 nM | > 1000 nM | 13 nM | 11 nM | > 10000 nM | inactive | > 10000 nM | > 10000 nM
